The text below walks through data of a melting point compilation (Tetko et al.; mined from patent text by program, amines drawn as free bases though some values may be those of a salt).

Each structure is given as a SMILES string.

For `CC(=O)OCCSc1nc(C(C)(C)C)nn1C(=O)N(C)C`, the melting point lay in the range of 110 to 112 °C.

`CCCCN1C(=O)CC(=O)N(c2ccccc2)c2cc(Cl)ccc21`: the melting point fell in the range of 159 to 161 °C.

For `NC(=O)CNC(=O)c1cc(F)cc(-c2ccc(F)c3cc(Cc4cc(F)cc(Cl)c4)sc23)c1`, the melting point was 192 to 194 °C.

`Oc1nsc(SCc2ccc(Cl)cc2)n1` came in with a melting point of 138 °C.

`COc1cccc(C23CCN(C)CC2Cc2c([nH]c(C(=O)N4CCCC4)c2C)C3)c1` (stereo unspecified) had a melting point of 171 to 173 °C.

With `COC1CC(OC)(OC)C(=O)N1` (stereo unspecified), the melting point was found to be 86 °C.

`CCCCc1ncc(CSc2ncccc2C(=O)O)n1Cc1ccc(C(=O)O)cc1` showed a melting point of 155 to 157 °C.

Take `CS(=O)(=O)c1ccc(C(=O)O)c(F)c1F`: the melting point was in the range of 214 to 215 °C.

The compound `CSC(=O)C(=O)c1ccc(NC=O)nc1` showed a melting point of 152 to 154 °C.

As for `Cc1ccc([N+](=O)[O-])c(C(=O)N[C@@H]2c3cc(OC(F)(F)F)ccc3OC(C)(C)[C@H]2O)c1`, the melting point fell in the range of 185 to 187 °C.

`CC(=O)Nc1ccc(CCC2CSC(=O)NN2)cc1` (stereo unspecified) registered a melting point of 235 to 240 °C.

`CCCCCCCNC1=CC(=O)c2c(OC)ccc(OC)c2C1=O`: the melting point was 74 to 75 °C.

Take `Cc1cc(F)ccc1-c1c(O)c(C)c(-c2ccc(F)cc2)oc1=O`: the melting point fell in the range of 191 to 193 °C.

For the compound `O=C1NC(=O)C(Sc2ccc(Br)cc2)S1` (stereo unspecified), the melting point is 115 to 117 °C.

In turn, `Cc1oc(-c2ccccc2)nc1COc1ccc(Cn2cc(CCCC(=O)O)c(-c3ccccc3)n2)cc1` yielded a melting point of 118 to 119 °C.

In turn, `N#Cc1cnc2cc(Br)ccc2c1Nc1ccc(Oc2ccccc2)cc1` gave a melting point of 205 to 207 °C.

Regarding `O=C(c1ccccc1)c1cn2c3ccccc3c3cccc(c1=O)c32`, the melting point lay within 158 to 160 °C.

For the compound `O=C(O)c1cccc(CSCCNC(=O)c2c(Cl)cccc2Cl)c1`, the melting point was 165 to 166 °C.

The compound `CCOC(=O)c1nc(C2CC2)nc(N)c1/C=C/[Si](C)(C)C` returned a melting point of 99 to 101 °C.

In turn, `Nc1nc(SC2C=CCCC2)c2ncn(C3C=CC(CO)C3)c2n1` (stereo unspecified) showed a melting point of 138 to 140 °C.

For the compound `CCOC(=O)c1cn(-c2cnsn2)c2c(F)c(F)c(F)cc2c1=O`, the melting point was in the range of 167 to 169 °C.

Turning to `COc1ccc(-n2ccc3ccccc32)cc1`, the melting point was in the range of 52 to 54 °C.

`O=C1C(=O)c2ccccc2C2=C1SCC1(CCC(NC(=O)c3cccc(C(F)(F)F)c3)CC1)O2` (stereo unspecified) registered a melting point of 266 to 267 °C.

The compound `O=S(=O)(c1c(-c2ccc(Cl)cc2)[nH]c(SC(F)(F)F)c1Br)C(F)(F)F` yielded a melting point of 122 to 125 °C.

As to `COC(=O)C(C)(SC)c1ccc(N2CCCCC2)c(Cl)c1` (stereo unspecified), the melting point is 83.5 to 85 °C.

The compound `CCOC(=O)CCc1cc(C(=O)c2ccc(C(=O)OCC)cc2)ccc1O` returned a melting point of 70 to 71 °C.

Turning to `Cc1ccc(-c2nc(C)c3c(=O)[nH]ncn23)cc1`, the melting point was in the range of 251 to 253 °C.

In turn, `CC(=O)SCC(Cc1ccccc1)C(=O)Nc1cc(C(=O)O)ccc1N1CCCC1` (stereo unspecified) returned a melting point of 217 to 222 °C.

The compound `CCOC(=O)c1ccc2c(c1)C(=O)NC(C(Cl)(Cl)Cl)N2` (stereo unspecified) displayed a melting point of 243 to 244 °C.

The compound `Cc1cc(N)ccc1-c1ccc(-c2ccc(N)cc2C)o1` returned a melting point of 174 to 176 °C.

Turning to `O=C(O)CCc1nc2c(F)c(F)cc(F)c2s1`, the melting point was in the range of 123 to 125 °C.

Compound `COc1ccc2cc(C(C)C(=O)OC/C=C\COC(=O)OC(C)O[N+](=O)[O-])ccc2c1` (stereo unspecified) displayed a melting point of 76 to 78 °C.

For `CC12CCC(=O)C=C1CCC1C2CCC2(C)C(C(=O)c3ccccc3)CCC12` (stereo unspecified), the melting point lay within 171 to 173 °C.

Take `COc1cc(N2CCN(C)CC2)ccc1-c1nc2c(N[C@H]3[C@@H](C(N)=O)[C@@H]4C=C[C@H]3C4)ccnc2[nH]1`: the melting point lay within 185 to 195 °C.

Turning to `O=[N+]([O-])C=C(NCCO)NCCO`, the melting point lay in the range of 145 to 146 °C.

In the case of `O=C1CCC2=C1C(Cc1ccccc1)(Cc1ccccc1)c1ccccc12`, the melting point stood at 155 °C.

The term melting point denotes the temperature, or range, at which the solid turns liquid.
